According to PMC10845951, “Characterization of a selective, iron-chelating antifungal compound that disrupts fungal metabolism and synergizes with fluconazole” (Microbiology Spectrum, 2024):

System: C. glabrata gene expression
Test: RNA sequencing (gene regulation)
Assay type: cell-based, Candida glabrata
Details: for Log2 Fold-Change: vs DMSO
Method: Cells from overnight precultures in YPD medium were reinoculated in fresh YNB −iron medium (see “Culture maintenance” for contents) without iron and grown until OD600 of 0.4. […] Cells were collected from three independent experiments, snap frozen, and stored at −80°C. Total RNA purification was performed as previously described using the RNeasy Mini Kit (74104, Qiagen), and gDNA removal was made using the RNase-Free DNase Set kit (79254, Qiagen). RNA quantification and quality control were done with a Tape Station 4150 (Agilent) ([59]).
Library preparation and sequencing were performed at GenomEast (IGBMC, Illkirch, France). One DMSO 0.05% sample was excluded from the analysis due to insufficient quality. The library was sequenced on Illumina Hiseq 4000 sequencer as single-read 50-base reads following Illumina’s instructions. Reads were pre-processed in order to remove adapter, polyA, and low-quality sequences (Phred quality score below 20). Reads shorter than 40 bases were discarded from further analysis. These pre-processing steps were performed using cutadapt version 1.10 ([60]). Image analysis and base calling were performed using RTA 2.7.7 and bcl2fastq2.17.1.14. Adapter dimer reads were removed using DimerRemover (https://sourceforge.net/projects/dimerremover/). The quality of the RNAseq reads was examined using FastQC 0.11.2 (http://www.bioinformatics.babraham.ac.uk/projects/fastqc/) and FastQScreen 0.5.1 (https://www.bioinformatics.babraham.ac.uk/projects/fastq_screen/). Reads were mapped onto the ASM254v2 assembly of Candida glabrata genome using STAR version 2.5.3a ([61]). Gene expression quantification was performed from uniquely aligned reads using htseq-count version 0.6.1p1 ([62]), with annotations from Ensembl fungi version 50 and union mode. Only non-ambiguously assigned reads have been retained for further analyses. Read counts were normalized across samples with the median-of-ratios method ([63]). Comparisons were implemented in the Bioconductor package DESeq2 version 1.16.1 using the test for differential expression ([64]). Genes with no P-value corresponded to genes with high Cook’s distance that were filtered out. P-values were adjusted for multiple testing using the Benjamini and Hochberg method ([65]). Genes with no adjusted P-value correspond to genes filtered out in the independent filtering step in order to remove reads from genes that have no or little chance of showing evidence of significant differential expression.

SMILES: c1ccc(-c2cccc(-c3ccccn3)n2)nc1 [2,2′:6′,2′′-terpyridine]
- genes significantly downregulated (10 µM, 1 h): 220 genes
- genes significantly upregulated (10 µM, 1 h): 224 genes
- Log2 Fold-Change (ALD5 CAGL0J03212g): 0.7544
- Log2 Fold-Change (AP5 CAGL0K08756g): 0.9964
- Log2 Fold-Change (APE1 CAGL0K08536g): 0.6939
- transcriptional response (C. glabrata and S. cerevisiae): strong iron starvation response
- Log2 Fold-Change (CAGL0A03674g): 0.5588
- Log2 Fold-Change (CAGL0B00484g): 0.7628
- Log2 Fold-Change (CAGL0B00792g): 1.214
- Log2 Fold-Change (CAGL0B00880g): 0.7009
- Log2 Fold-Change (CAGL0B01485g): 0.6219
- Log2 Fold-Change (CAGL0B02343g): 1.023
- Log2 Fold-Change (CAGL0H06963g): 0.7275
- Log2 Fold-Change (CAGL0H06985g): 0.7901
- Log2 Fold-Change (CAGL0H07205g): 0.5522
- Log2 Fold-Change (CAGL0H08393g): 1.535
- Log2 Fold-Change (CAGL0H09966g): 1.521
- Log2 Fold-Change (CAGL0I00264g): 0.9978
- Log2 Fold-Change (CAGL0I02354g): 0.6425
- Log2 Fold-Change (CAGL0I02376g): 0.6418
- Log2 Fold-Change (CAGL0I02398g): 0.5822
- Log2 Fold-Change (CAGL0I02508g): 0.5529
- Log2 Fold-Change (CAGL0I02684g): 0.5135
- Log2 Fold-Change (CAGL0I03344g): 0.7316
- Log2 Fold-Change (CAGL0I03608g): 0.7862
- Log2 Fold-Change (CAGL0I03630g): 0.6284
- Log2 Fold-Change (CAGL0I04290g): 0.6237
- Log2 Fold-Change (CAGL0I05060g): 0.5728
- Log2 Fold-Change (CAGL0I05654g): 0.7141
- Log2 Fold-Change (CAGL0I09350g): 0.5587
- Log2 Fold-Change (CAGL0I09702g): 0.5611
- Log2 Fold-Change (CAGL0I10670g): 0.9553
- Log2 Fold-Change (CAGL0J00451g): 2.136
- Log2 Fold-Change (CAGL0J00473g): 0.7426
- Log2 Fold-Change (CAGL0J01023g): 1.022
- Log2 Fold-Change (CAGL0J01045g): 0.9433
- Log2 Fold-Change (CAGL0J02376g): 0.7958
- Log2 Fold-Change (CAGL0J03718g): 0.5395
- Log2 Fold-Change (CAGL0J05412g): 0.5243
- Log2 Fold-Change (CAGL0J07568g): 0.7185
- Log2 Fold-Change (CAGL0J07980g): 0.7919
- Log2 Fold-Change (CAGL0J08250g): 0.5358
- Log2 Fold-Change (CAGL0J08910g): 0.5502
- Log2 Fold-Change (CAGL0J09196g): 0.506
- Log2 Fold-Change (CAGL0J09460g): 0.6815
- Log2 Fold-Change (CAGL0J10032g): 0.7428
- Log2 Fold-Change (CAGL0J10252g): 0.8692
- Log2 Fold-Change (CAGL0J10912g): 0.7791
- Log2 Fold-Change (CAGL0J11066g): 0.8417
- Log2 Fold-Change (CAGL0J11088g): 0.5227
- Log2 Fold-Change (CAGL0J11242g): 0.9997
- Log2 Fold-Change (CAGL0J11286g): 0.9034
- Log2 Fold-Change (CAGL0K02211g): 0.9809
- Log2 Fold-Change (CAGL0K02387g): 0.933
- Log2 Fold-Change (CAGL0K02431g): 0.8737
- Log2 Fold-Change (CAGL0K03861g): 0.5943
- Log2 Fold-Change (CAGL0K05049g): 0.5707
- Log2 Fold-Change (CAGL0K05555g): 0.5483
- Log2 Fold-Change (CAGL0K06215g): 1.181
- Log2 Fold-Change (CAGL0K07007g): 1.24
- Log2 Fold-Change (CAGL0K07898g): 0.62
- Log2 Fold-Change (CAGL0K08272g): 0.5171
- Log2 Fold-Change (CAGL0K08360g): 0.5636
- Log2 Fold-Change (CAGL0K09284g): 1.197
- Log2 Fold-Change (CAGL0K09372g): 0.5402
- Log2 Fold-Change (CAGL0K09614g): 0.8683
- Log2 Fold-Change (CAGL0K09922g): 0.6435
- Log2 Fold-Change (CAGL0L00583g): 0.7346
- Log2 Fold-Change (CAGL0L02739g): 0.6875
- Log2 Fold-Change (CAGL0L02871g): 0.8194
- Log2 Fold-Change (CAGL0L03047g): 0.9793
- Log2 Fold-Change (CAGL0L03696g): 0.5808
- Log2 Fold-Change (CAGL0L04092g): 0.5318
- Log2 Fold-Change (CAGL0L04114g): 0.5841
- Log2 Fold-Change (CAGL0L04950g): 0.896
- Log2 Fold-Change (CAGL0L05170g): 0.8533
- Log2 Fold-Change (CAGL0L05258g): 1.271
- Log2 Fold-Change (CAGL0L05500g): 0.7913
- Log2 Fold-Change (CAGL0L05566g): 0.7478
- Log2 Fold-Change (CAGL0L05786g): 1.136
- Log2 Fold-Change (CAGL0L06468g): 0.5199
- Log2 Fold-Change (CAGL0L06754g): 0.7195
- Log2 Fold-Change (CAGL0L07678g): 0.9514
- Log2 Fold-Change (CAGL0L07832g): 0.9435
- Log2 Fold-Change (CAGL0L08096g): 0.673
- Log2 Fold-Change (CAGL0L08206g): 0.6805
- Log2 Fold-Change (CAGL0L08756g): 0.7529
- Log2 Fold-Change (CAGL0L08976g): 0.7934
- Log2 Fold-Change (CAGL0L10846g): 0.7927
- Log2 Fold-Change (CDC21 CAGL0K05467g): 0.5322
- Log2 Fold-Change (FTR1 CAGL0I06743g): 1.014
- Log2 Fold-Change (GAT1 CAGL0K07634g): 0.7416
- Log2 Fold-Change (HBN1 CAGL0B00990g): 1.565
- Log2 Fold-Change (HMX1 CAGL0A03905g): 1.923
- Log2 Fold-Change (KNH1 CAGL0H07997g): 0.5109
- Log2 Fold-Change (NOP8 CAGL0B01397g): 0.7894
- Log2 Fold-Change (PDR16 CAGL0J07436g): 0.9143
- Log2 Fold-Change (SNQ2 CAGL0I04862g): 0.5824
- Log2 Fold-Change (SUT1 CAGL0I04246g): 0.7641
- Log2 Fold-Change (SUT2 CAGL0L09383g): 0.6785
- Log2 Fold-Change (TRR1 CAGL0I01166g): 1.667
